# Data reported in PubChem BioAssay AID652057 (Broad Institute, 2013).
# Values joined by “and” are separate entries in the source; they are usually repeats but may differ in a detail not shown here. Equal entries are not always repeated.
# Test system: HeLa-JRFL Env/CEM21 cell fusion, luciferase
# Experiment: inhibitors of HIV Env-driven cell fusion, dose response, cherry-pick (AID 652057)
row,Structure (SMILES),AC50
1,O=C(C[C@H]1C[C@H]2c3cc(NC(=O)c4ccc5c(c4)OCO5)ccc3O[C@H]2[C@H](CO)O1)NCc1ccc(Oc2ccccc2)cc1,35.1 µM
2,C[C@H](CO)N1C[C@H](C)[C@H](CN(C)S(=O)(=O)c2ccccc2)Oc2ncc(/C=C/c3ccccc3)cc2C1=O,9.21 µM and 1.6 µM
